A short description of the assay: Ability to trap the DPPH radical. Conditions: 5 μg/mL. How it is done: PRINCIPLE: This method is based on the reduction of an alcoholic solution of the stable form of the DPPH. radical in the presence of an antioxidant donor of hydrogen (AH), which leads to the formation of a non-radical form DPPH-H. This reduction causes a color change from violet to yellow which could be studied at 517 nm. The faster the color change occurs, the more the donor is considered as a strong antioxidant. PROTOCOL: 50 μL of different concentrations of each extract was added to 1.950 mL of freshly prepared methanolic DPPH. […] After incubation for 30 minutes in the dark and at room temperature, the absorbance was read at 517 nm. Methanol was used as control and ascorbic acid was used as standard. The ability to trap DPPH^· was expressed in percentage inhibition as calculated using the following equation: [formula] The inhibitory concentrations 50 (IC50) were later determined by extrapolating after drawing curves of percentage inhibition against concentration. All samples were analyzed in triplicates. I.4.3. Evaluation of DPPH^· Anti-Radical Activity of Rough Extract Fractions This activity was evaluated using the protocol of Sanchez-Moreno et al. (1998) as described earlier.

SMILES strings stand for the structures.

For the molecule `O=C1O[C@H]([C@@H](O)CO)C(O)=C1O` [Vitamin C, ascorbic acid], the “% inhibition of DPPH radical” value amounted to 54%.
